Reference: patent US11059832B2, “HPK1 inhibitors and methods of using same” (University Health Network, priority 2015, dated 2021)

What was measured:
[1] = tested on: ERK1/2 T202/Y204 phosphorylation in α-CD3 stimulated Jurkat E6.1 cells; assay: In vitro phosphorylation assay, ERK1/2 T202/Y204 (immunoblot); type: cell-based; conditions: Homo sapiens, 4 h pretreatment, read-out: ERK1/2 T202/Y204 Phosphorylation Onset Inhibition
Method: (§1) Jurkat E6.1 cells were obtained from American Type Culture Collection (ATCC, Manassas, Va.), and maintained according to the supplier's instructions. Cells were washed three times and starved in RPMI 1640 medium supplemented with 0.5% fetal calf serum for 18 h at 37° C. Serum starved cells were pretreated with the indicated concentration of inhibitor for 4 hours before stimulation with 10 μg/ml α-CD3 antibody (BioLegend, Inc., San Diego, Calif.) for 10 min at 37° C. The cells were washed once in phosphate-buffered saline (pH 7.4) containing 10 mm sodium pyrophosphate, 10 mm sodium fluoride, 10 mm EDTA, and 1 mm sodium orthovanadate. Protein lysates were prepared using ice-cold radioimmunoprecipitation assay (RIPA) lysis buffer. A total of 100 μg of cell lysate was loaded onto Bis-Tris gels (Life Technologies, Carlsbad, Calif.) with full-range molecular weight marker as a size reference, and resolved by SDS-PAGE electrophoresis. Proteins were transferred to PVDF membrane (Millipore, Billerica, Mass.), blocked and probed with antibodies for phospho-SLP-76 (Ser376) (rabbit polyclonal #13177; Cell Signaling Technology Inc., Danvers, Mass.), SLP-76 (rabbit polyclonal #4958; Cell Signaling Technology Inc., Danvers, Mass.), phospho-ERK (mouse monoclonal sc-7383; Santa Cruz Biotechnology Inc., Santa Cruz, Calif.) and ERK1/2 (rabbit polyclonal 06-182; Millipore, Billerica, Mass.). Secondary antibodies were diluted 1 in 15,000 and incubated for 1 h at rt. Protein bands were visualized and quantified using Odyssey near infrared imager (LI-COR, Lincoln, Nebr.).
(§2) Table 2 below lists effects of representative compounds of the present invention against SLP-76 serine 376 phosphorylation and ERK1/2 T202/Y204 phosphorylation in α-CD3 stimulated Jurkat E6.1 cells.

[2] = target: T1, LCK (Homo sapiens, UniProt P06239); assay: LCK inhibition, FRET based Z'-LYTE Kinase Assay; type: biochemical; conditions: 25 nM LCK, 180 μM ATP; read-out: IC50 Range Lck
T1 construct: purchased Invitrogen P3043
T1 sequence (P06239 whole entry, species assumed): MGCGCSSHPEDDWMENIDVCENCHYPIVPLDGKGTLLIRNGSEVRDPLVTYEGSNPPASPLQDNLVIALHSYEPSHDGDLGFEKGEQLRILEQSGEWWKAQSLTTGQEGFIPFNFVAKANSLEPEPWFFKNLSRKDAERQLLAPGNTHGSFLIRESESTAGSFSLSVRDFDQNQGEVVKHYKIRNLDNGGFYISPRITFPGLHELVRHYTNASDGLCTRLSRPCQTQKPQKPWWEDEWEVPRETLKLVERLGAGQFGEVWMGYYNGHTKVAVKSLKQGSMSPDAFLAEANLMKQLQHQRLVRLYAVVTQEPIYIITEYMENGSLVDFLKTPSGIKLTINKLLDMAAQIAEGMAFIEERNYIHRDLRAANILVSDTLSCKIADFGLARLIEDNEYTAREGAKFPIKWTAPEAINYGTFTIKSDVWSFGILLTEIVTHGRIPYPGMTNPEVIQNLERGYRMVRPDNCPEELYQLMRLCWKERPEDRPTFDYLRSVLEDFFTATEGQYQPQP
Method: (§3) FLT3 and LCK compound inhibition were determined using FRET based Z′-LYTE Kinase Assay Kit with Tyrosine 2 peptide as the substrate (Invitrogen cat #PV3191). […] The % inhibition values were determined according to the manufacturer's directions and IC50 values were obtained using a non-linear 4 point logistic curve fit (XLfit4, IDBS).

[3] = tested on: SLP-76 serine 376 phosphorylation in α-CD3 stimulated Jurkat E6.1 cells; assay: In vitro phosphorylation assay, SLP-76 Ser376 (immunoblot); type: cell-based; conditions: Homo sapiens, 4 h pretreatment, substantive = >75% inhibition as estimated by immunoblot analysis, read-out: SLP76 S376 Phosphorylation Onset-Substantive* Inhibition
Method: as §1, §2

[4] = target: T2, human HPK1 (MAP4K1) (Homo sapiens, UniProt Q92918); assay: HPK1 inhibition assay (indirect ELISA); type: biochemical; conditions: GST-HPK1 0.6 nM, 12 μM ATP; read-out: IC50 Range HPK1
T2 construct: human HPK1 (aa 1-346); purchased Invitrogen PV6355
T2 sequence (Q92918 1-346): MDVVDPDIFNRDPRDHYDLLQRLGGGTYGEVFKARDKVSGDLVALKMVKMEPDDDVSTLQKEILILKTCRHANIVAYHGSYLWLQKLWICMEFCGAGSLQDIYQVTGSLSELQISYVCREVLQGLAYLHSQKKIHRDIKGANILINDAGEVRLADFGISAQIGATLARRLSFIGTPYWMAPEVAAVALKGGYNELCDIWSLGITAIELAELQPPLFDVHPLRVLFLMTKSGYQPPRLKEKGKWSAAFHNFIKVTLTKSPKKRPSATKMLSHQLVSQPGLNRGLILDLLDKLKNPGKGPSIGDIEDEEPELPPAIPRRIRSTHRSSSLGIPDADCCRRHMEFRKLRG
Procedure, shortened: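 GST-tagged human HPK1 (aa 1-346, 0.6 nM) phosphorylated MBP-coated wells with 12 μM ATP in MOPS pH 7.2/Mg2+ buffer for 30 min after 15-min compound preincubation; phospho-Thr detected by antibody ELISA with TMB, 450 nm. Tested at 10 μM or 10-point titration (typically 50-0.1 μM); IC50 by 4-parameter logistic fit.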

[5] = target: T3, FLT3 (Homo sapiens, UniProt P36888); assay: FLT3 inhibition, FRET based Z'-LYTE Kinase Assay; type: biochemical; conditions: 1 nM FLT3, 940 μM ATP; read-out: IC50 Range Flt3
T3 construct: purchased Invitrogen PV3182
T3 sequence (P36888 27-993): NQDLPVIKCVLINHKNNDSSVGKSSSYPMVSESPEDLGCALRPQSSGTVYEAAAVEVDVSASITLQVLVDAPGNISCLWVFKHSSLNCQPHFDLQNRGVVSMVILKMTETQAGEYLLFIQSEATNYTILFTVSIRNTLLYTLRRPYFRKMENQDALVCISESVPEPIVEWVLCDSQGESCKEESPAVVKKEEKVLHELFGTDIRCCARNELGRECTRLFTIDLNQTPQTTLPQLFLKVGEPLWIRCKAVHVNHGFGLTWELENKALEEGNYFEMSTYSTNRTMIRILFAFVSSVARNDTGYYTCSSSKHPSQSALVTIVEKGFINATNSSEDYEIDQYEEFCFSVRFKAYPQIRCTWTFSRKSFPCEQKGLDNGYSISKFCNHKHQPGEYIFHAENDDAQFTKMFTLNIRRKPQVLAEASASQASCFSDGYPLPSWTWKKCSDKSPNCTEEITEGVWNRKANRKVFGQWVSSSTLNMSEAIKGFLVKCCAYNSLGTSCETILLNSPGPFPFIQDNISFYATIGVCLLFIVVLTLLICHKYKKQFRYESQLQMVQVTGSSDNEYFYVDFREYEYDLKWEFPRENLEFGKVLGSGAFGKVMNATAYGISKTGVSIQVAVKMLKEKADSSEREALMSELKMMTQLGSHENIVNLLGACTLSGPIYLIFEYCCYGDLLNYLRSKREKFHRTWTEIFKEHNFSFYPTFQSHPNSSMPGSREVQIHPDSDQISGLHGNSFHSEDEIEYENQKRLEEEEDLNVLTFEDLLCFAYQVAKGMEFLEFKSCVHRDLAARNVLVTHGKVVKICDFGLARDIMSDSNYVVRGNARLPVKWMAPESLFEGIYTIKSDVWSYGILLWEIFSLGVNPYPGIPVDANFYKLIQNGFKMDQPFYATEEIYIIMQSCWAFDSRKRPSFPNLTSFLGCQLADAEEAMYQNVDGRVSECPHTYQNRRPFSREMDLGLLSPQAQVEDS
Method: as §3

Structure (SMILES): CN1CCN(c2ccc3nc(-c4c(N[C@H]5CCC[C@H]5O)c5ccsc5[nH]c4=O)[nH]c3c2)CC1 [Example A58, 4-(((1S,2R)-2-hydroxy-cyclopentyl)amino)-5-(6-(4-methylpiperazin-1-yl)-1H-benzo[d]imidazol-2-yl)-thieno[2,3-b]pyridin-6(7H)-one]
- minimal effective concentration [1]: > 3 µM
- IC50 [2]: 50 to 500 nM
- IC75 [3]: 100 to 300 nM
- IC50 [4]: ≤ 50 nM
- IC50 [5]: ≤ 50 nM
